Laboratory results published in patent publication US11427548B2 (Arvinas Operations, Inc., priority 2015, dated 2022).
Read-outs that look alike come from different tables or passages of the source.

Assays:
[1] = biological target: T1, Androgen Receptor (Homo sapiens, UniProt P10275+P40337, T878A); experiment: Androgen Receptor ELISA assay (PathScan AR ELISA) in LNCaP cells: AR degradation, Dmax and DC50; assay type: cell-based; details: for DC50: concentration that caused 50% Androgen Receptor degradation
T1 construct: Compounds have been evaluated in this assay in LNCaP and/or VCaP cells utilizing similar protocols; endogenous in cells; host or cells: LNCaP cells

[2] = biological target: T2, Androgen Receptor (Homo sapiens, UniProt P10275); experiment: Androgen Receptor ELISA assay (PathScan AR ELISA) in VCaP cells: AR degradation, Dmax and DC50; assay type: cell-based
T2 construct: endogenous in cells; host or cells: VCaP cells
T2 sequence (P10275 1-920): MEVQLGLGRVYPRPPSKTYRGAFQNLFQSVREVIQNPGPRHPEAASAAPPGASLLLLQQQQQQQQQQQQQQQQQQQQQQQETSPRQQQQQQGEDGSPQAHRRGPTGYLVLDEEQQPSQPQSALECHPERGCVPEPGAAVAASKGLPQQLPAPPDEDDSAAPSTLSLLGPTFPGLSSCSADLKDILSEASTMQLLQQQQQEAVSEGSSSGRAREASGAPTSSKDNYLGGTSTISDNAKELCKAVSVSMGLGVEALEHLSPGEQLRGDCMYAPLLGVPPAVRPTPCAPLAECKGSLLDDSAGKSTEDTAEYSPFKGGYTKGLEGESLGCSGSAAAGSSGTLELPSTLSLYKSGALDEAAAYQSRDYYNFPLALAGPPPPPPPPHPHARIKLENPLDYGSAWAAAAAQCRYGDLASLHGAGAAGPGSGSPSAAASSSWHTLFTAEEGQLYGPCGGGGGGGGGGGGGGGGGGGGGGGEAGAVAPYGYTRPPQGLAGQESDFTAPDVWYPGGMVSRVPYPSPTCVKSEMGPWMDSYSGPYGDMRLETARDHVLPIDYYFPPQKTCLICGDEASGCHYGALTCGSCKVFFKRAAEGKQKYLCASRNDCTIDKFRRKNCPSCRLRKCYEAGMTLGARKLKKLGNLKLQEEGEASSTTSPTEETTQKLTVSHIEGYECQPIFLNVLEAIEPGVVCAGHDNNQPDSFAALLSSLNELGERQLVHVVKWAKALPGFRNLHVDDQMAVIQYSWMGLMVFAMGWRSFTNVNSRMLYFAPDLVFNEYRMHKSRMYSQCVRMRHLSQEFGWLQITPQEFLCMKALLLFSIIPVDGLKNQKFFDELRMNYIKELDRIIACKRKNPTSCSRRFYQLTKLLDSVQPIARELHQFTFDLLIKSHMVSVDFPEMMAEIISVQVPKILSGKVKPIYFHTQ
Procedure, shortened: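 After 24 h exposure of VCaP cells (charcoal-stripped serum, 0.1 nM R1881 agonist, 0.1% DMSO) to seven half-log compound concentrations, residual AR in lysates was measured by PathScan ELISA (TMB absorbance, 450 nm). Cells were plated at 30,000/well and grown at least 3 days beforehand.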

[3] = highest percentage of Androgen Receptor degradation
[4] = read-out: VCaP DC50; VCaP cells; concentration that caused 50% Androgen Receptor degradation
[5] = highest percentage of Androgen Receptor degradation observed
[6] = read-out: VCaP DC50; concentration that caused 50% Androgen Receptor degradation, VCaP cells

T1 sequence (P10275 whole entry T878A): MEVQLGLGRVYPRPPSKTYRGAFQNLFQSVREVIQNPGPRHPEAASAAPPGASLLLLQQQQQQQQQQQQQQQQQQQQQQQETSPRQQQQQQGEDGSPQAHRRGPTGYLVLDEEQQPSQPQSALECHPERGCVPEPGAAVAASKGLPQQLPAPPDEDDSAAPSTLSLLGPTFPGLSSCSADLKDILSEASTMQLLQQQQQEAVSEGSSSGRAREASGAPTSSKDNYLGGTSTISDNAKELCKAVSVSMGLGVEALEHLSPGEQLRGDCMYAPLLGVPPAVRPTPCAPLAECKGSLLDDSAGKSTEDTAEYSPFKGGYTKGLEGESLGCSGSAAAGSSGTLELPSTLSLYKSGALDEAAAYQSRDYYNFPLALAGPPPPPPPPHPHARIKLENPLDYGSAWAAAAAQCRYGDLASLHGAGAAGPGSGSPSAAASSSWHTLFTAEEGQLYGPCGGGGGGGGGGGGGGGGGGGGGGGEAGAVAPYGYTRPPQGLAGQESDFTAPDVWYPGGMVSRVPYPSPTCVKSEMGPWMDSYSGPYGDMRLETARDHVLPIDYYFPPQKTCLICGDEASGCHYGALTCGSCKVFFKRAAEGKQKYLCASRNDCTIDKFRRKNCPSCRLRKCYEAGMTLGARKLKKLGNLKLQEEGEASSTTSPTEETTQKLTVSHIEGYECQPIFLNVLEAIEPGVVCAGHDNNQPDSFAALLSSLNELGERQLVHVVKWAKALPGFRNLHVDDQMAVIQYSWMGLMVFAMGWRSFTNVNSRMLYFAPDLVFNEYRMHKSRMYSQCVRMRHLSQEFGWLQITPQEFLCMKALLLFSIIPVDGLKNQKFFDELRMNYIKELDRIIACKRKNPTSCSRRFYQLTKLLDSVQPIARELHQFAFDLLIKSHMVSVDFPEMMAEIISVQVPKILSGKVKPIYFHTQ
T1 sequence (P40337 whole entry): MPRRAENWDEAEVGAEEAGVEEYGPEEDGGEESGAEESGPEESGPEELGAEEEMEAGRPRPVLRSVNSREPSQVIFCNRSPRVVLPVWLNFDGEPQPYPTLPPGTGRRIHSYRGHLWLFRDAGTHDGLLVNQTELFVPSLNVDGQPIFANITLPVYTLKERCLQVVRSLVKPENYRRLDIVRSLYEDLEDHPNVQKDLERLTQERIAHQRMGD
T1 sequence (Q15369 whole entry partner): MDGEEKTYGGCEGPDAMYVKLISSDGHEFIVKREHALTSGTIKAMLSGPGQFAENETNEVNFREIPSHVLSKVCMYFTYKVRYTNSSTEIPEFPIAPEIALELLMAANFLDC
T1 sequence (Q15370 whole entry partner): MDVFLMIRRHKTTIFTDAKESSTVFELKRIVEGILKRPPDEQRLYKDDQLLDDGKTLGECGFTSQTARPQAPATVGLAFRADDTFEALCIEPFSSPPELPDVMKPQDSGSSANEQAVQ

Compound | DC50 [1] | Dmax [1, 3] | Dmax ([2]; VCaP, read-out: VCaP Dmax (%)) | DC50 [2, 4] | Dmax [1, 5] | DC50 [2, 6] | Dmax ([2]; VCaP, highest percentage of Androgen Receptor degradation observed, VCaP cells; read-out: VCaP Dmax (%)) | DC50 ([2]; concentration that caused 50% Androgen Receptor degradation, VCaP cells; read-out: VCaP DC50)
Cc1ncsc1-c1ccc(CNC(=O)[C@@H]2C[C@@H](O)CN2C(=O)[C@@H](NC(=O)CCCOc2ccc(CCOc3ccc(N4C(=S)N(c5ccc(C#N)c(C(F)(F)F)c5)C(=O)C4(C)C)cc3)cc2)C(C)(C)C)cc1 [Example 302] | 51 to 500 nM | > 71% | 51 to 70% | < 50 nM |  |  |  | 
Cc1ncsc1-c1ccc(CNC(=O)[C@@H]2C[C@@H](O)CN2C(=O)[C@@H](NC(=O)C(C)(C)C(O)CCCOCCCCCOc2ccc(N3C(=S)N(c4ccc(C#N)c(C(F)(F)F)c4)C(=O)C3(C)C)cc2)C(C)(C)C)cc1 (stereo partly shown) [Example 310] | > 501 nM | 26 to 50% | < 25% |  |  |  |  | 
Cc1ncsc1-c1ccc(CNC(=O)[C@@H]2C[C@@H](O)CN2C(=O)[C@@H](NC(=O)COCCCCOCCN2CCC(c3ccc(N4C(=S)N(c5ccc(C#N)c(C(F)(F)F)c5)C(=O)C4(C)C)cc3)CC2)C(C)(C)C)cc1 [Example 81, (2S,4R)-1-((S)-2-(2-(4-(2-(4-(4-(3-(4-cyano-3-(trifluoromethyl)phenyl)-5,5-dimethyl-4-oxo-2-thioxoimidazolidin-1-yl)phenyl)piperidin-1-yl)ethoxy)butoxy)acetamido)-3,3-dimethylbutanoyl)-4-hydroxy-N-(4-(4-methylthiazol-5-yl)benzyl)pyrrolidine-2-carboxamide] | > 501 nM |  | < 25% |  | 51 to 70% | 51 to 500 nM |  | 
Cc1ncsc1-c1ccc(CNC(=O)[C@@H]2C[C@@H](O)CN2C(=O)[C@@H](NC(=O)c2cccc(OCCCCOc3ccc(N4C(=S)N(c5ccc(C#N)c(C(F)(F)F)c5)C(=O)C4(C)C)cc3)c2)C(C)(C)C)cc1 [Example 278] | 51 to 500 nM | > 71% | 51 to 70% | < 50 nM |  |  |  | 
Cc1ncsc1-c1ccc(CNC(=O)[C@@H]2C[C@@H](O)CN2C(=O)[C@@H](NC(=O)COCCOCCCCCOc2ccc(N3C(=S)N(c4ccc(C#N)c(C(F)(F)F)c4)C(=O)C3(C)C)cc2)C(C)(C)C)cc1 [Example 247] | < 50 nM | > 71% | > 71% | < 50 nM |  |  |  | 
Cc1ncsc1-c1ccc(CNC(=O)[C@@H]2C[C@@H](O)CN2C(=O)[C@@H](NC(=O)COCC#CC#CCOc2ccc(N3C(=S)N(c4ccc(C#N)c(C(F)(F)F)c4)C(=O)C3(C)C)cc2)C(C)(C)C)cc1 [Example 54, (2S,4R)-1-((S)-2-(2-(6-(4-(3-(4-cyano-3-(trifluoromethyl)phenyl)-5,5-dimethyl-4-oxo-2-thioxoimidazolidin-1-yl)phenoxy)hexa-2,4-diynyloxy)acetamido)-3,3-dimethylbutanoyl)-4-hydroxy-N-(4-(4-methylthiazol-5-yl)benzyl)pyrrolidine-2-carboxamide] | > 501 nM |  | > 71% |  | < 25% |  |  | 
Cc1ncsc1-c1ccc(CNC(=O)[C@@H]2C[C@@H](O)CN2C(=O)[C@@H](NC(=O)OCCOCCOc2ccc(-c3ccc(N4C(=S)N(c5ccc(C#N)c(C(F)(F)F)c5)C(=O)C4(C)C)cc3)cc2)C(C)(C)C)cc1 [Example 66, 2-(2-(4′-(3-(4-cyano-3-(trifluoromethyl)phenyl)-5,5-dimethyl-4-oxo-2-thioxoimidazolidin-1-yl)biphenyl-4-yloxy)ethoxy)ethyl (S)-1-((2S,4R)-4-hydroxy-2-(4-(4-methylthiazol-5-yl)benzylcarbamoyl)pyrrolidin-1-yl)-3,3-dimethyl-1-oxobutan-2-ylcarbamate] | 51 to 500 nM |  | 26 to 50% |  | 51 to 70% | 51 to 500 nM |  | 
Cc1ncsc1-c1ccc(CNC(=O)[C@@H]2C[C@@H](O)CN2C(=O)[C@@H](NC(=O)COCCCOCCC(C)(C)CCOc2ccc(N3C(=S)N(c4ccc(C#N)c(C(F)(F)F)c4)C(=O)C3(C)C)cc2)C(C)(C)C)cc1 [Example 12, (2S,4R)-1-[(2S)-2-[2-(3-{[5-(4-{3-[4-cyano-3-(trifluoromethyl)phenyl]-5,5-dimethyl-4-oxo-2-sulfanylideneimidazolidin-1-yl}phenoxy)-3,3-dimethylpentyl]oxy}propoxy)acetamido]-3,3-dimethylbutanoyl]-4-hydroxy-N-{[4-(4-methyl-1,3-thiazol-5-yl)phenyl]methyl}pyrrolidine-2-carboxamide] | 51 to 500 nM |  | 26 to 50% |  | > 71% | < 50 nM |  | 
Cc1ncsc1-c1ccc(CNC(=O)[C@@H]2C[C@@H](O)CN2C(=O)[C@@H](NC(=O)CCCCOc2ccc(-c3ccc(N4C(=S)N(c5ccc(C#N)c(C(F)(F)F)c5)C(=O)C4(C)C)cc3)cc2)C(C)(C)C)cc1 [Example 69, (2S,4R)-1-[(2S)-2-{5-[4-(4-{3-[4-cyano-3-(trifluoromethyl)phenyl]-5,5-dimethyl-4-oxo-2-sulfanylideneimidazolidin-1-yl}phenyl)phenoxy]pentanamido}-3,3-dimethylbutanoyl]-4-hydroxy-N-{[4-(4-methyl-1,3-thiazol-5-yl)phenyl]methyl}pyrrolidine-2-carboxamide] | 51 to 500 nM |  | 26 to 50% |  | > 71% | 51 to 500 nM |  | 
Cc1ncsc1-c1ccc(CNC(=O)[C@@H]2C[C@@H](O)CN2C(=O)[C@@H](NC(=O)CCCOCC#CC#CCOc2ccc(N3C(=S)N(c4ccc(C#N)c(C(F)(F)F)c4)C(=O)C3(C)C)cc2)C(C)(C)C)cc1 [Example 56, (2S,4R)-1-[(2S)-2-(4-{[6-(4-{3-[4-cyano-3-(trifluoromethyl)phenyl]-5,5-dimethyl-4-oxo-2-sulfanylideneimidazolidin-1-yl}phenoxy)hexa-2,4-diyn-1-yl]oxy}butanamido)-3,3-dimethylbutanoyl]-4-hydroxy-N-{[4-(4-methyl-1,3-thiazol-5-yl)phenyl]methyl}pyrrolidine-2-carboxamide] | > 501 nM |  | < 25% |  | 26 to 50% |  |  | 
COc1cc(N2C(=O)C(C)(C)N(c3ccc(OCCCCOCCCOCC(=O)N[C@H](C(=O)N4C[C@H](O)C[C@H]4C(=O)NCc4ccc(-c5scnc5C)cc4)C(C)(C)C)cc3)C2=S)ccc1C#N [Example 32, (2S,4R)-1-[(2S)-2-{2-[3-(4-{4-[3-(4-cyano-3-methoxyphenyl)-5,5-dimethyl-4-oxo-2-sulfanylideneimidazolidin-1-yl]phenoxy}butoxy)propoxy]acetamido}-3,3-dimethylbutanoyl]-4-hydroxy-N-{[4-(4-methyl-1,3-thiazol-5-yl)phenyl]methyl}pyrrolidine-2-carboxamide] | < 50 nM |  |  |  | > 71% |  | 51 to 70% | < 50 nM
Cc1ncsc1-c1ccc(CNC(=O)[C@@H]2C[C@@H](O)CN2C(=O)[C@@H](NC(=O)CCCOCCN2CCC(c3ccc(N4C(=S)N(c5ccc(C#N)c(C(F)(F)F)c5)C(=O)C4(C)C)cc3)CC2)C(C)(C)C)cc1 [Example 309] | > 501 nM | 26 to 50% | 26 to 50% | < 50 nM |  |  |  | 
Cc1ncsc1-c1ccc([C@H](C)NC(=O)[C@@H]2C[C@@H](O)CN2C(=O)[C@@H](NC(=O)COCCCCOCCCCOc2ccc(N3C(=S)N(c4ccc(C#N)c(C(F)(F)F)c4)C(=O)C3(C)C)cc2F)C(C)(C)C)cc1 [Example 25, (2S,4R)-1-[(2S)-2-(2-{4-[4-(4-{3-[4-cyano-3-(trifluoromethyl)phenyl]-5,5-dimethyl-4-oxo-2-sulfanylideneimidazolidin-1-yl}-2-fluorophenoxy)butoxy]butoxy}acetamido)-3,3-dimethylbutanoyl]-4-hydroxy-N-[(lS)-1-[4-(4-methyl-1,3-thiazol-5-yl)phenyl]ethyl]pyrrolidine-2-carboxamide] | < 50 nM |  | 51 to 70% |  | > 71% | < 50 nM |  | 
